We go through six molecules from ChEMBL document CHEMBL6182925 (J Med Chem, 2025).

By EC50 is commonly meant the concentration needed to bring the measured effect to its halfway point. The low end stands for a more potent agent, the high end for a less potent agent. The IC50 is the point on the concentration scale where inhibition reaches its midpoint. Lower therefore signals greater potency in that assay.

The nature of series [1]: Kinetic solubility of compound at pH 2. It is filed as physicochemical. Particulars: buffer, read-out: Kinetic_solubility.
The next series in a line: cells. Particulars: Mus musculus, BaF3/TRP-Met, 72 h.
The nature of series [2]: Kinetic solubility of compound at pH 4.5. The class given is physicochemical. Particulars: buffer, read-out: Kinetic_solubility.
Another series deals with Cytochrome P450 3A4 (Homo sapiens, UniProt P08684). As to the kind of experiment: Inhibition of CYP3A4 (unknown origin). It is filed as ADME.
Series [3] has as its system BaF3. As to the kind of experiment: cells. Particulars: Mus musculus, BaF3, 72 h.
Series [4] has as its system BaF3. The experiment in a line: cells. Particulars: Mus musculus, BaF3, 72 h. This is another data set of the same source.
The test system of series [5] is BaF3. As to the kind of experiment: cells. The settings on record: Mus musculus, BaF3, 72 h. This is another data set of the same source.
Series [6] concerns BaF3. The experiment in a line: cells. Particulars: Mus musculus, BaF3, 72 h. This is another data set of the same source.
Series [7] concerns BaF3. As to the kind of experiment: cells. The settings on record: Mus musculus, BaF3, 72 h. This is another data set of the same source.
For series [8], the system named is BaF3. As to the kind of experiment: cells. Particulars: Mus musculus, BaF3, 72 h. This is another data set of the same source.
Series [9] concerns BaF3. As to the kind of experiment: cells. The settings on record: Mus musculus, BaF3, 72 h. The source holds these as a separate data set.
The subject of series [10] is BaF3. As to the kind of experiment: cells. Particulars: Mus musculus, BaF3, 72 h. This is another data set of the same source.
The subject of series [11] is BaF3. The experiment in a line: cells. Particulars: Mus musculus, BaF3, 72 h. The source holds these as a separate data set.
The test system of series [12] is BaF3. The experiment in a line: cells. Particulars: Mus musculus, BaF3, 72 h. This is another data set of the same source.
Series [13] relates to BaF3. The experiment in a line: cells. Particulars: Mus musculus, BaF3, 72 h. This is another data set of the same source.
The subject of series [14] is BaF3. As to the kind of experiment: cells. Particulars: Mus musculus, BaF3, 72 h. The source holds these as a separate data set.
Series [15] relates to BaF3. The experiment in a line: cells. The settings on record: Mus musculus, BaF3, 72 h. The source holds these as a separate data set.
Series [16] has as its system BaF3. As to the kind of experiment: cells. Particulars: Mus musculus, BaF3, 72 h. This is another data set of the same source.

Converted amounts (≈) assume the structure as drawn.

Chain of Cytochrome P450 3A4 (P08684 whole entry): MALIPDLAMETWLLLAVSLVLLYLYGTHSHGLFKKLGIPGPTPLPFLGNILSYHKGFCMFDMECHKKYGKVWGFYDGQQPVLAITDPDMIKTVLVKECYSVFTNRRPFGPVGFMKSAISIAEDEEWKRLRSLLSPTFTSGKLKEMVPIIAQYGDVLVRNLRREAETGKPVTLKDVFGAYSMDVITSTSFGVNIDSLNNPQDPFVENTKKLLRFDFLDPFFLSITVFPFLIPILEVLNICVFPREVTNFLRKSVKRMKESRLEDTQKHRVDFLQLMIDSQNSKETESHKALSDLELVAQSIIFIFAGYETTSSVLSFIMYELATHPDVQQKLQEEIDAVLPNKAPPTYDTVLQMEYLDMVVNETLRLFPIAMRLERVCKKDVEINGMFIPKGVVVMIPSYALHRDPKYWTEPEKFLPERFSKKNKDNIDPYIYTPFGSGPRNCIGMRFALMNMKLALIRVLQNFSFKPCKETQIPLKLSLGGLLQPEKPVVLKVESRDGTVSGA

Take `COc1cc2nccc(Oc3ccc(NC(=O)c4cnccc4OC)cc3F)c2cc1OC`: the results for the solubility kinetic in [1] and in [2] were 252 µM (≈ 113 µg/mL) and 24 µM (≈ 10.8 µg/mL), respectively. Further, the EC50 stood at 382 nM in the series “cells” and 174 nM in the series with BaF3 [3]. Also, the IC50 against Cytochrome P450 3A4 is over 50000 nM.
`C[C@@H](c1ccc2nccn2c1)n1nnc2ncc(-c3cnn(C)c3)nc21` [SAVOLITINIB]: the EC50 in the series with BaF3 [4] is 7400 nM; with BaF3 [5], over 10000 nM; in the series on BaF3 [6], 0.5 nM; with BaF3 [7] it was 8.4 nM; with BaF3 [8], 0.5 nM; in the series with BaF3 [9], 73 nM. The EC50 in the series on BaF3 [10] was 1.5 nM; in the series on BaF3 [11], over 10000 nM; with BaF3 [12], over 10000 nM; in the series on BaF3 [13], over 10000 nM; with BaF3 [14], 13 nM; with BaF3 [15], over 10000 nM. Moreover, the EC50 in the series with BaF3 [16] was found to be 74 nM.
Take `CN1CCC(COc2cnc(-c3cccc(Cn4nc(-c5cccc(C#N)c5)ccc4=O)c3)nc2)CC1` [TEPOTINIB]: the EC50 in the series with BaF3 [4] is 1820 nM; with BaF3 [5], 3440 nM; in the series with BaF3 [6] it was 2.3 nM; in “cells” it was 6.4 nM; in the series with BaF3 [7], 24 nM; in the series with BaF3 [8] it was 0.6 nM. For the same molecule, the EC50 with BaF3 [9] was found to be 123 nM; with BaF3 [10], 4.2 nM; with BaF3 [11], 2210 nM; in the series with BaF3 [12], 3410 nM; in the series on BaF3 [13], 3040 nM; in the series on BaF3 [14], 183 nM. Further, the EC50 with BaF3 [15] is 2810 nM; with BaF3 [16], 122 nM; in the series on BaF3 [3], 1910 nM. Moreover, the solubility kinetic in [1] came to 295 µM (≈ 145 µg/mL); in series [2] it was 48 µM (≈ 23.6 µg/mL).
As to `COc1cc2nccc(Oc3c(F)cc(NC(=O)c4cnccc4OC)cc3F)c2cc1OC`, the figures for the solubility kinetic in [1] and in [2] were 205 µM (≈ 95.8 µg/mL) and 5.4 µM (≈ 2.52 µg/mL), respectively. The figures for the EC50 in “cells” and in the series on BaF3 [3] were 123 nM and 56 nM, respectively.
`COc1cc2nccc(Oc3c(F)cc(NC(=O)c4cnccc4OC4CC4)cc3F)c2cc1OC`: the results for the solubility kinetic in series [1] and in series [2] were 288 µM (≈ 142 µg/mL) and 4.4 µM (≈ 2.17 µg/mL), respectively. Also, the EC50 worked out at 43 nM in “cells” and 26 nM in the series on BaF3 [3].
At Cytochrome P450 3A4, `COc1cc2nccc(Oc3ccc(NC(=O)c4ccncc4OC)cc3F)c2cc1OC` yielded an IC50 of 300 nM. This counts as sub-micromolar.
